Reference: patent publication US20170216399A1, “COMPOSITIONS, METHODS AND USES FOR PROTECTING WHITE BLOOD CELLS FROM SUPPRESSION OR DEATH” (LOS ANGELES BIOMEDICAL RESEARCH INSTITUTE AT HARBO-UCLA …, priority 2014, published 2017)
Marks after values point to notes of the source that are not given here. Ends that are not written are not given here.

Columns and labels:
[1] = test system: white blood cells; type: in vivo
Method: (§1) Body weight (BW) was recorded at autopsy.
The effect of a potent HN analog HNG (HN-S14G) (5mg/KG/day, IP) with and without concomitant cyclophosphamide (CP, 200 mg IP) treatment was administered to 4 adult healthy mice in each group. Another four mice served as controls. Two days after treatment, the animals were killed and their peripheral blood cells were collected and the blood cell counts were assessed by a blood cell counter.

[2] = test system: white blood cells; type: in vivo; details: CP 200 mg IP single dose, melanoma-bearing mice (FIG. 2)
Method: The effect of a potent HN analog HNG (HN-S14G) with or without cyclophosphamide (CP) in a mouse melanoma with lung metastasis model was studied. Five mice were used as control (Con) and 40 mice were inoculated intravenously with B16 murine melanoma cells. Of these mice five received no further treatment (NT). A week later the remaining 35 mice (n=5 per group) were treated for additional 2 weeks with: • 1) HNG 0.05 mg/KG body weight (BW) daily IP injection for 2 weeks; • 2) HNG 0.5 mg mg/Kg BW daily IP injection for 2 weeks; • 3) HNG 5 mg/Kg BW daily IP injection for 2 weeks; • 4) a single CP (200 mg IP single dose) injection+HNG 0.05 mg/KG body weight (BW) daily IP injection for 2 weeks; • 5) a single CP (200 mg IP single dose) injection+HNG 0.5 mg mg/Kg BW daily IP injection for 2 weeks; • 6) a single CP (200 mg IP single dose) injection HNG 0.5 mg mg/Kg BW daily IP injection for 2 weeks; • 7) a single CP (200 mg IP single dose) injection+HNG 5 mg mg/Kg BW daily IP injection.
All mice were sacrificed three weeks after tumor inoculation and two weeks after CP/HNG treatment. Blood was obtained for the measurement of white blood cell (WBC) count by a Coulter Counter.

[3] = test system: peripheral blood leucocytes
Method: (§2) Mice were injected with heparin (1300 IU/kg BW, ip) 15 min before sacrifice by sodium pentobarbital (200 mg/kg BW IP). Body weight (BW) was recorded at autopsy. Blood samples were collected from the right ventricle of each mouse immediately after death and used for complete blood count using an automated cell counter (VetScanHM2, ABAXIS, Union City, Calif.). Plasma was separated and stored at −20° C. for subsequent HNG, IGF-1 and IGFBP-1 measurements by specific and sensitive ELISA assays as previously described (Chin et al., Endocrinology. 2013; 154:3739-44; Hwang et al, Growth Horm IGF Res 2008; 18: 65-74).
(§3) Twenty-five young adult (12-week-old) male mice (C57BL/6J) were used for this experiment in which 5 mice were used as control and 20 mice of each were intravenously inoculated via the tail vein with 1×10^5 murine B16 melanoma cells. 20 tumor-bearing mice were randomly divided into 4 groups with 5 mice in each group received 1) no treatment; 2) HNG alone; 3) CP alone; and 4) a combination treatment with the doses and duration described above.

[4] = test system: IGF-1; experiment: Plasma IGF-1 levels (ELISA) in B16 tumor-bearing mice; type: in vivo, mouse; details: treatment alone, tumor-bearing mice (FIG. 3B)
Method: as §2, §3

[5] = test system: murine B16 melanoma cells; experiment: Lung melanoma metastases in B16 tumor-bearing mice; type: in vivo, mouse; details: treatment alone vs non-treated tumor-bearing mice
From the text: In this study the tumor loading dose was 1×10^5 B16 cells per mouse to examine the effects of HNG on peripheral blood leucocytes, plasma IGF-1 and IGFBP-1 levels while confirming its additive or synergistic effect on CP-induced suppression of lung melanoma metastases. Twenty-five young adult (12-week-old) male mice (C57BL/6J) were used for this experiment in which 5 mice were used as control and 20 mice of each were intravenously inoculated via the tail vein with 1×10^5 murine B16 melanoma cells. 20 tumor-bearing mice were randomly divided into 4 groups with 5 mice in each group received 1) no treatment; 2) HNG alone; 3) CP alone; and 4) a combination treatment with the doses and duration described above.

[6] = test system: red blood cell or platelet; experiment: Red blood cell and platelet counts in B16 tumor-bearing mice
Method: as §2, §3

[7] = test system: IGF-1; experiment: Plasma IGF-1 levels among groups in healthy mice (Table 6); type: in vivo, mouse; details: mean ± SEM
Method: as §1

[8] = test system: IGFBP-1; experiment: Plasma IGFBP-1 levels among groups in healthy mice (Table 6); type: in vivo, mouse; details: mean ± SEM
Method: as §1

[9] = test system: peripheral leucocytes; experiment: Peripheral leucocytes among treatment groups of healthy mice (Table 7); type: in vivo, mouse; details: mean ± SEM
Method: as §1

[10] = test system: germ cells; details: cited from earlier work
[11] = test system: cells; details: HN mutant compared with HN; cited from earlier work
[12] = mouse, in vivo
Method: as §2, §3

[13] = mouse, in vivo; remark: listed apart in the source
[14] = during in vivo treatment with CP (Drumond, et al., 2011)

O=P1(N(CCCl)CCCl)NCCCO1 (stereo not shown) [CP, cyclophosphamide monohydrate]
granulocyte count in the blood, of baseline value ([1]; CP 200 mg IP alone, two days after CP treatment (FIG. 1B)): about 25%
WBC, fraction of the baseline counts ([1]; CP 200 mg IP alone, two days after treatment (FIG. 1A)): about ⅕
WBC count, fraction of control values [2]: about ⅓
number of white blood cells ([3]; CP alone vs non-treated tumor-bearing mice (FIG. 4A)): significantly suppressed
granulocytes ([3]; CP alone vs non-treated tumor-bearing mice (FIG. 4B)): significantly suppressed
monocytes ([3]; CP alone vs non-treated tumor-bearing mice (FIG. 4C)): significantly suppressed
lymphocytes ([3]; CP alone vs non-treated tumor-bearing mice (FIG. 4D)): significantly suppressed
plasma IGF-1 levels [4]: significantly suppressed
number of metastatic tumors in the lungs [5]: significantly decreased
platelet counts [6]: no significant decreases
red blood cell counts [6]: no significant decreases
IGF-1 (ng/ml) [7]: 182.4 ± 10.5^c ng/ml
IGFBP-1 (ng/ml) [8]: 7.4 ± 1.3^b ng/ml
Granulocytes (10^6/ml) [9]: 0.2 ± 0.02^b 10^6/ml
Lymphocytes (10^6/ml) [9]: 0.07 ± 0.01^b 10^6/ml
Monocytes (10^6/ml) [9]: 0.01 ± 0.01^b 10^6/ml
Total WBC (10^6/ml) [9]: 0.3 ± 0.02^b 10^6/ml
differentiated germ cells of mice [10, 14]: eliminated
undifferentiated germ cells remained [10, 14]: about half
germ cells regenerated from undifferentiated stem cells ([10]; once CP treatment was stopped (Drumond, et al., 2011)): about 64%

HN-C8A: Cys8 to Ala; MAPRGFSALLLLTSEIDLPVKRRA (SEQ ID NO: 42)
Cytoprotective Action [11]: Not effective, prevents

MAPRGFSCLLLLTGEIDLPVKRRA [HNG]
plasma HNG levels [12]: increased
HNG (ng/ml) [13]: 80.8 ± 7.8^b ng/ml

HN-L12A: HN mutant, Leu12 to Ala (MAPRGFSCLLLATSEIDLPVKRRA; Humanin; UniProt Q8IVG9 1-24, looked up, variant L12A)
Cytoprotective Action [11]: HN antagonist, forms

HN: MAPRGFSCLLLLTSEIDLPVKRRA (SEQ ID NO: 1); 24-amino acid mitochondrial derived peptide
total number of white blood cells (WBC) ([1]; HNG 5mg/KG/day IP alone, adult healthy mice, two days after treatment, vs controls (FIG. 1A)): increased slightly but significantly

HN-S7A: MAPRGFACLLLLTSEIDLPVKRRA (SEQ ID NO: 24); Ser7 to Ala
Cytoprotective Action [11]: Not effective, prevents

HN-F6A: MAPRGASCLLLLTSEIDLPVKRRA (SEQ ID NO: 22); Phe6 to Ala
Cytoprotective Action [11]: Similar/more effective

HN-C8P: MAPRGFSPLLLLTSEIDLPVKRRA (SEQ ID NO: 25); Cys8 to Pro
Cytoprotective Action [11]: Not effective, blocks
